Assay results as given in patent publication US4820712A, “Sparsomycin (SC-RS) compounds having antitumor activity, a process for their preparation and pharmaceutical compositions containing sparsomycin (SC-RS) compounds” (priority 1986, dated 1989).

Assays:
[1] = test system: ribosomes from E. coli MRE600 (peptidyl transferase activity); assay: polyphenylalanine synthesis assay, E. coli ribosomes; assay type: biochemical; settings: concentration giving 50% inhibition relative to control; 37° C., 30 min; read-out: ED50 polyPhe synthesis E. coli
Method: The peptidyl transferase activity was measured by the polyphenylalanine synthesis assay (Nirenberg and Matthei, Proc. Natl. Acad. Sci. USA 47 (1961) 1588), the fragment reaction (Monro, Methods Enzymol. 20 (1971) 472) and the puromycin reaction. In all the in vitro tests, i.e. polyPhe synthesis, fragment reaction and puromycin reaction, ribosomes from E. coli MRE600 and S. cerevisiae Y166 were used. The reaction mixture for polyphenylalanine synthesis was slightly different for E. coli and S. cerevisiae.
E. coli: The reaction mixture (50 μl) contained 50 mM Tris-HCl pH 7.6, 15 mM MgCl2, 90 mM KCl, 15 mM β-mercapto ethanol, 1 mM GTP, 10 mM ATP, 0.2 mg/ml of polyuridylic acid, 1.5 mg/ml tRNA, 0.3 μM of ribosomes, 2.5 mg/ml of phosphoenol pyruvate, 20 μg/ml of pyruvate kinase, the required concentration of sparsomycin or its analogue and 5 μl of supernatant fraction S-100. Subsequently, [^3 H]phenylalanine, 30 μM (about 60 cpm/pmol) was added to start the reaction. Incubation was at 37° C. for 30 min. The reaction was stopped by the addition of 1 ml of 10% TCA and the samples were filtered through glass fiber filters. The filters were washed with 10 ml of cold 10% TCA, dried and counted for radioactivity.
The concentration of sparsomycin or an analog giving 50% inhibition of the protein synthesis relative to the control is given in ED50.

[2] = test system: L1210 leukemia; assay: in vivo antitumor assay, L1210 leukemia; parameters: species or system CDF1 mice
Method: The antitumor activity of the present compounds has also been investigated by in vivo assays. In the assays, mice were treated for nine days in succession, starting at 24 hours after the time of tumor implant.
The results are shown in tables 4, 5 and 6 and represent the number of tumor-bearing mice surviving after administration of optimal doses of the test compound, expressed as a treatment/control (T/C×100%) ratio. In the tables, information is provided with respect to the sex, dose, weight loss of treated animals compared to control animals, and the number of survivors in groups of 6 mice.

[3] = acute toxicity LD50; assay type: in vivo, mice; settings: for LD50: mouse, in vivo, ip, daily x9 injections, mice, 95% confidence interval given, read-out: LD 50 in mg/kg/inj i.p. in mice
Excerpt: It appears therefrom that ala-sparsomycin is about 9× less toxic than sparsomycin.

[4] = test system: whole reticulocytes; settings: attributed to being unable to penetrate these cells; cited from earlier work
[5] = clinical tests (Cancer. Chemother. Rep. (1969), 43, 29); cited from earlier work
[6] = female mice, ip daily x9, optimal dose mg/kg: sparsomycin 0.25, n-octyl 12.0, benzyl 10.0, 2a 2.5, 2e 13.3
[7] = female mice, ip daily x9, dose mg/kg: sparsomycin 0.25, n-octyl 12.0, benzyl 10.0, 2a 2.5, 2e 13.3
[8] = male mice, ip daily x9, optimal dose mg/kg: sparsomycin 0.125, n-octyl 20.0, benzyl 4.0, 2a 1.7
[9] = male mice, ip daily x9, dose mg/kg: sparsomycin 0.125, n-octyl 20.0, benzyl 4.0, 2a 1.7

Row | SMILES | IC50 [1] [µM] | T/C (survival, treatment/control x 100%) [2, 6] [%] | cures (survivors in groups of 6 mice) [2, 7] | T/C (survival, treatment/control x 100%) [2, 8] [%] | cures (survivors in groups of 6 mice) [2, 9] | weight loss (T - C) ([2]; mouse, in vivo, ip) [g] | LD50 [3] [mg/kg] | activity against whole reticulocytes [4] | toxicity revealed in clinical tests [5] | weight loss (T - C) [2, 7] [g] | weight loss (T - C) ([2]; male mice, ip daily x9 from 24 h after implant, dose mg/kg: sparsomycin 0.125, n-octyl 20.0, benzyl 4.0, 2a 1.7) [g] | times less toxic than sparsomycin (LD50 ratio) ([3]; compared with sparsomycin, LD50 i.p. in mice)
1 | CSC[S@+]([O-])C[C@H](CO)NC(=O)/C=C/c1c(C)[nH]c(=O)[nH]c1=O [Sparsomycin] | 8.5 | 121 | 0/6 | 105 | 0/6 | -1.1 | 0.26 | not active | eye toxicity |  |  | 
2 | CSC[S@+]([O-])C[C@H](C)NC(=O)/C=C/c1c(C)[nH]c(=O)[nH]c1=O [2a, (Sc Rs)-1-(methylthiomethyl)sulfinyl-2-[β-(6-methyl-5-uracilyl)acrylamido]-propane] | 15.1 | 184 | 0/6 | 248 | 2/6 |  | 2.33 |  |  | -1.4 | -2.0 | about 9 ×
